IC50 and EC50 data for 3 molecules are collected here from ChEMBL document CHEMBL3784917, “Recent Progress in Histone Demethylase Inhibitors” (J Med Chem, 2016).

The structures appear in SMILES notation.

A short description of assay [1]: Inhibition of FIH (unknown origin) using ankyrin peptide substrate preincubated for 5 mins followed by substrate addition measured after 5 mins MALDI-TOF mass spectrometric analysis. More on the design: species or system Homo sapiens.
Assay [2] deals with T1, Lysine-specific demethylase 2A (Homo sapiens, UniProt Q9Y2K7).
T1 sequence (Q9Y2K7 whole entry): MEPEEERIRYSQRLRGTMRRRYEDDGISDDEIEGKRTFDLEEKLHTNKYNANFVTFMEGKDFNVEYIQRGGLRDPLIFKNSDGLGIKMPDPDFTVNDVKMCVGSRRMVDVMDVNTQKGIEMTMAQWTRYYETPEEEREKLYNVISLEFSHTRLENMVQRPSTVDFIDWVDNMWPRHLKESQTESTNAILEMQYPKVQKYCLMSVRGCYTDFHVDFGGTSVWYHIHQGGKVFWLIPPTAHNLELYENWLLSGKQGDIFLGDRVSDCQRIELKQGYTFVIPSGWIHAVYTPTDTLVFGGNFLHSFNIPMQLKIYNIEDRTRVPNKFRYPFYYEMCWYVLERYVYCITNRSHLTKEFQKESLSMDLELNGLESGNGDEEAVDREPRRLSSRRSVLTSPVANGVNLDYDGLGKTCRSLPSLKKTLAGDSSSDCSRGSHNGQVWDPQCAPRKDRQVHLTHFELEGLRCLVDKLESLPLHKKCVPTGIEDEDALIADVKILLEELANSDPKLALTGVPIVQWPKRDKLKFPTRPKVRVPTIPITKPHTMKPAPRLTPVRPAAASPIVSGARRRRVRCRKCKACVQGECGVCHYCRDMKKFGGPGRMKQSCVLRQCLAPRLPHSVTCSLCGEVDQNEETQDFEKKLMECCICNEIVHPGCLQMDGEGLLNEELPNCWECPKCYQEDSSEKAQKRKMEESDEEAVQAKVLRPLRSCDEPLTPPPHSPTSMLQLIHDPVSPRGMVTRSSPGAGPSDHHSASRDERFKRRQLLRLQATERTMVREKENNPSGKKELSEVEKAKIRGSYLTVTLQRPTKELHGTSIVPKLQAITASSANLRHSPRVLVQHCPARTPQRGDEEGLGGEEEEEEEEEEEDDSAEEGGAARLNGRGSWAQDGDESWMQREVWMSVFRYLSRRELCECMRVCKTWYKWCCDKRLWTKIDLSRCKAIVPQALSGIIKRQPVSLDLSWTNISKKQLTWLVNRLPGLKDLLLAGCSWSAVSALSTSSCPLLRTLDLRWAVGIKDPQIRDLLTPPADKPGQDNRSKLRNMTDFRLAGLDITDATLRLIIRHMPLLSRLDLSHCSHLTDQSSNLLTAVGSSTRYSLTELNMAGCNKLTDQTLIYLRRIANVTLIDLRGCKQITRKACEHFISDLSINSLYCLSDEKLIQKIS
Description: Inhibition of KDM2A (unknown origin) preincubated for 15 mins followed by histone substrate addition measured after 1 hr by alphascreen assay. (In general: Alpha assays give light when donor and acceptor beads are brought close together.)

For assay [3], the target named is T2, Lysine-specific demethylase 3A (Homo sapiens, UniProt Q9Y4C1).
T2 sequence (Q9Y4C1 whole entry): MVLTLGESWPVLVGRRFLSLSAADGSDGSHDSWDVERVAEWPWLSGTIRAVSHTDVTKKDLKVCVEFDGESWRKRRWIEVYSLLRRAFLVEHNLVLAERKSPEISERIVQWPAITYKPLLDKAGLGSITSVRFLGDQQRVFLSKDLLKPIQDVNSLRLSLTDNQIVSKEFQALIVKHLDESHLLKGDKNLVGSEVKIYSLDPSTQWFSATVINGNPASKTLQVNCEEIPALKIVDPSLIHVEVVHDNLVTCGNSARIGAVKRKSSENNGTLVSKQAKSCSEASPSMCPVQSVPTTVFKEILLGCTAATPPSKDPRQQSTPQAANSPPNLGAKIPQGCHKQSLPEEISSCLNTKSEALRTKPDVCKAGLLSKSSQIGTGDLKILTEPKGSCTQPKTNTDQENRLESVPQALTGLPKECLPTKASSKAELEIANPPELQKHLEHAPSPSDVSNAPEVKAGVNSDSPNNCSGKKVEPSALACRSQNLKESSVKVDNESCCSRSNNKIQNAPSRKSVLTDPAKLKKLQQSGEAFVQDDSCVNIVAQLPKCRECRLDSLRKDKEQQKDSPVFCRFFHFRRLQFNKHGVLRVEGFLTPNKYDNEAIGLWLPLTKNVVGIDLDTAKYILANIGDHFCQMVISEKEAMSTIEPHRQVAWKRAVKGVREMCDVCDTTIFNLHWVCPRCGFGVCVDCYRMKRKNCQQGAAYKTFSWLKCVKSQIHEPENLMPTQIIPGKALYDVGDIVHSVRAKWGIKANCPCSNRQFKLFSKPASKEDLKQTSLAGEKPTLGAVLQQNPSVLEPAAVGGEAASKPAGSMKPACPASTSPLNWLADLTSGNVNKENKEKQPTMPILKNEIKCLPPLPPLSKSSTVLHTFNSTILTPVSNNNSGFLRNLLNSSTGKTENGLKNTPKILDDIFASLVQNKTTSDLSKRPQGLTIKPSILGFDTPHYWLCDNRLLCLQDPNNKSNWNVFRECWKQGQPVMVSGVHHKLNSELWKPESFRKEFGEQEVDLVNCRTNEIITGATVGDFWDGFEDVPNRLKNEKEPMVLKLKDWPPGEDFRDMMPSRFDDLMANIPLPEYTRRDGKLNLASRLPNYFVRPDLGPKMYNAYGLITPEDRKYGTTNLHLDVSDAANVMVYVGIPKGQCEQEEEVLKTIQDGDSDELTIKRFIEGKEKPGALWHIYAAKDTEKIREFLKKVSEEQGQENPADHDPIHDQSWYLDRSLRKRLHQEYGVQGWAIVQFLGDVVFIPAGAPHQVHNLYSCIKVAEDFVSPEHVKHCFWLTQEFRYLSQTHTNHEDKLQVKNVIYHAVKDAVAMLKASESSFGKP
As to the kind of experiment: Inhibition of KDM3A (unknown origin) preincubated for 15 mins followed by histone substrate addition measured after 1 hr by alphascreen assay.

In assay [4] the target is T1, Lysine-specific demethylase 2A. Description: Inhibition of KDM2A (unknown origin) after 24 hrs by alphascreen assay.
A short description of assay [5]: Antiproliferative activity against human MM1S cells assessed as reduction in cell viability after 120 hrs by ATPlite assay. Format: functional, cell-based. To be noted: MM1.S. Background: ATP-based viability assays read luminescence as a measure of living cells.

Turning to `Cc1ccsc1C(NC(=O)c1ccccc1)c1cc(Cl)c2cccnc2c1O` (racemic), the IC50 (commonly the concentration needed to halve the response being measured) was greater than 100 µM in assay [1], 34 µM in assay [2] and 191 µM in assay [3].
Regarding `CCCCCCCCOC(=O)c1ccc(O)c2ncccc12`, the IC50 in assay [4] was greater than 100 µM.
As for `CCN(CCN(C)C)C(=O)CNCc1cc(CNC(=O)C(F)(F)F)ccn1`, in assay [5], the EC50 (usually the concentration at which the effect is half-maximal) is less than 0.25 µM.
